{"source": "patent US6846921B2", "about": "“Chimeric antisense oligonucleotides and cell transfecting formulations thereof” (Chiron Corporation, priority 1999, dated 2005)", "key": {"[1]": {"system": "AKT2 mRNA", "assay": "AKT2 mRNA knockout after transfection of chimeric antisense oligonucleotide", "type": "cell-based, human", "conditions": "HT1080 cells, Lipitoid 1 for transfection, incubated 24 hours, approximate level", "procedure": "(§1) With the exception of the mTyr oligo (SEQ ID NO: 17-18), which was transfected into B16 melanoma cells, all oligos shown in Table 1 were transfected into HT1080 cells, using “Lipitoid 1” (see below) for transfection, and incubated for 24 hours. The table gives the approximate level of mRNA knockout observed in each case.\n(§2) For each transfection mixture, a carrier molecule, preferably a lipitoid or cholesteroid, was prepared to a working concentration of 0.5 mM in water, sonicated to yield a uniform solution, and filtered through a 0.45 μm PVDF membrane. The antisense oligonucleotide was prepared to a working concentration of 100 μM in sterile Millipore water. […]\n(§3) The level of target mRNA was quantitated using the Roche LightCycler™ real-time PCR machine. […]\n(§4) An amplification mixture was prepared by mixing in the following order: 1×PCR buffer II, 3 mM MgCl2, 140 μM each dNTP, 0.175 pmol each oligo, 1:50,000 dil of SYBR® Green, 0.25 mg/ml BSA, 1 unit Taq polymerase, and H2O to 20 μl. (PCR buffer II is available in 10×concentration from Perkin-Elmer (Norwalk, Conn.). In 1×concentration it contains 10 mM Tris pH 8.3 and 50 mM KCl. SYBR® Green (Molecular Probes, Eugene, Oreg.) is a dye which fluoresces when bound to double stranded DNA. As double stranded PCR product is produced during amplification, the fluorescence from SYBR® Green increases.) […]"}, "[2]": {"system": "CHK2 mRNA", "assay": "CHK2 mRNA knockout after transfection of chimeric antisense oligonucleotide", "type": "cell-based, human", "conditions": "HT1080 cells, Lipitoid 1 for transfection, incubated 24 hours, approximate level", "procedure": "as §1, §2, §3, §4"}, "[3]": {"system": "KRAS mRNA", "assay": "KRAS mRNA knockout after transfection of chimeric antisense oligonucleotide", "type": "cell-based, human", "conditions": "HT1080 cells, Lipitoid 1 for transfection, incubated 24 hours, approximate level", "procedure": "as §1, §2, §3, §4"}, "[4]": {"system": "MMP2 mRNA", "assay": "MMP2 mRNA knockout after transfection of chimeric antisense oligonucleotide", "type": "cell-based, human", "conditions": "HT1080 cells, Lipitoid 1 for transfection, incubated 24 hours, approximate level", "procedure": "as §1, §2, §3, §4"}, "[5]": {"system": "MMP9 mRNA", "assay": "MMP9 mRNA knockout after transfection of chimeric antisense oligonucleotide", "type": "cell-based, human", "conditions": "HT1080 cells, Lipitoid 1 for transfection, incubated 24 hours, approximate level", "procedure": "as §1, §2, §3, §4"}, "[6]": {"system": "mTyr mRNA", "assay": "mTyr mRNA knockout after transfection into B16 melanoma cells", "type": "cell-based", "conditions": "approximate level", "procedure": "as §1, §2, §3, §4"}, "[7]": {"system": "p110α mRNA", "assay": "p110α mRNA knockout after transfection of chimeric antisense oligonucleotide", "type": "cell-based, human", "conditions": "HT1080 cells, Lipitoid 1 for transfection, incubated 24 hours, approximate level", "procedure": "as §1, §2, §3, §4"}, "[8]": {"system": "p110β mRNA", "assay": "p110β mRNA knockout after transfection of chimeric antisense oligonucleotide", "type": "cell-based, human", "conditions": "HT1080 cells, Lipitoid 1 for transfection, incubated 24 hours, approximate level", "procedure": "as §1, §2, §3, §4"}, "[9]": {"system": "PDK1 mRNA", "assay": "PDK1 mRNA knockout after transfection of chimeric antisense oligonucleotide", "type": "cell-based, human", "conditions": "HT1080 cells, Lipitoid 1 for transfection, incubated 24 hours, approximate level", "procedure": "as §1, §2, §3, §4"}, "[10]": {"system": "UPAR mRNA", "assay": "UPAR mRNA knockout after transfection of chimeric antisense oligonucleotide", "type": "cell-based, human", "conditions": "HT1080 cells, Lipitoid 1 for transfection, incubated 24 hours, approximate level", "procedure": "as §1, §2, §3, §4"}}, "note": "{5'-OMe-dT} = O-methyl thymidine blocking nucleotide (W), phosphodiester-linked; {3'-3'N} = to-3' linked nucleotide blocking group (Z), phosphodiester-linked; d = 2'-deoxy (DNA); m = 2'-O-methyl"}
{"substance": "2 (GTTCCCTTGCCAAGGAGTTTGAGAT; antisense; sugars from the 5' end m7 d11 m7, 5' {5'-OMe-dT}, 3' {3'-3'N}, backbone and T or U not given here; 2'-OMe blocks are phosphodiester, DNA gap is phosphorothioate) [compound 2]", "values": [{"measurement": "mRNA knockout", "setting": "[1]", "value": ">85", "unit": "%"}]}
{"substance": "4 (GACCCACTTCCCTGAAAATCCGAAA; antisense; sugars from the 5' end m7 d11 m7, 5' {5'-OMe-dT}, 3' {3'-3'N}, backbone and T or U not given here; 2'-OMe blocks are phosphodiester, DNA gap is phosphorothioate) [compound 4]", "values": [{"measurement": "mRNA knockout", "setting": "[2]", "value": ">90", "unit": "%"}]}
{"substance": "12 (GCATGTGGAAGGTAGGGAGGCAAGA; antisense; sugars from the 5' end m7 d11 m7, 5' {5'-OMe-dT}, 3' {3'-3'N}, backbone and T or U not given here; 2'-OMe blocks are phosphodiester, DNA gap is phosphorothioate) [compound 12]", "values": [{"measurement": "mRNA knockout", "setting": "[3]", "value": ">85", "unit": "%"}]}
{"substance": "14 (GAAGCCCCACTTGCGGTCGTCAT; sugars from the 5' end m7 d9 m7, 5' {5'-OMe-dT}, 3' {3'-3'N}, backbone and T or U not given here; 2'-OMe blocks are phosphodiester, DNA gap is phosphorothioate) [compound 14]", "values": [{"measurement": "mRNA knockout", "setting": "[4]", "value": ">80", "unit": "%"}]}
{"substance": "16 (GCTTTCTCTCGGTACTGGAAGACGT; antisense; sugars from the 5' end m7 d11 m7, 5' {5'-OMe-dT}, 3' {3'-3'N}, backbone and T or U not given here; 2'-OMe blocks are phosphodiester, DNA gap is phosphorothioate) [compound 16]", "values": [{"measurement": "mRNA knockout", "setting": "[5]", "value": ">80", "unit": "%"}]}
{"substance": "17 (AACCCATGAAGTTGCCTGAGCACTG; antisense; sugars from the 5' end m7 d11 m7, 5' {5'-OMe-dT}, 3' {3'-3'N}, backbone and T or U not given here; 2'-OMe blocks are phosphodiester, DNA gap is phosphorothioate) [compound 17]", "values": [{"measurement": "mRNA knockout", "setting": "[6]", "value": ">90", "unit": "%"}]}
{"substance": "19 (ATCTGGTCGCCTCATTTGCTCAACT; antisense; sugars from the 5' end m7 d11 m7, 5' {5'-OMe-dT}, 3' {3'-3'N}, backbone and T or U not given here; 2'-OMe blocks are phosphodiester, DNA gap is phosphorothioate) [compound 19]", "values": [{"measurement": "mRNA knockout", "setting": "[7]", "value": ">95", "unit": "%"}]}
{"substance": "21 (TGATGAAGAGATTCCCATGCCGTCG; antisense; sugars from the 5' end m7 d11 m7, 5' {5'-OMe-dT}, 3' {3'-3'N}, backbone and T or U not given here; 2'-OMe blocks are phosphodiester, DNA gap is phosphorothioate) [compound 21]", "values": [{"measurement": "mRNA knockout", "setting": "[8]", "value": ">90", "unit": "%"}]}
{"substance": "23 (CTGTGAGCAACAGCTGTCGTCGTCT; antisense; sugars from the 5' end m7 d11 m7, 5' {5'-OMe-dT}, 3' {3'-3'N}, backbone and T or U not given here; 2'-OMe blocks are phosphodiester, DNA gap is phosphorothioate) [compound 23]", "values": [{"measurement": "mRNA knockout", "setting": "[9]", "value": ">90", "unit": "%"}]}
{"substance": "24 (GGCAGTCATTAGCAGGGTGATGGTG; antisense; sugars from the 5' end m7 d11 m7, 5' {5'-OMe-dT}, 3' {3'-3'N}, backbone and T or U not given here; 2'-OMe blocks are phosphodiester, DNA gap is phosphorothioate) [compound 24]", "values": [{"measurement": "mRNA knockout", "setting": "[10]", "value": ">80", "unit": "%"}]}
